From article PMC6707612, “Cyclic-di-GMP binds to histidine kinase RavS to control RavS-RavR phosphotransfer and regulates the bacterial lifestyle transition between virulence and swimming” (PLoS Pathogens, 2019)
Values joined by “and” are separate entries in the source; they are usually repeats but may differ in a detail not shown here. Identical values can stand only once.

Experiments:
RavR^ΔEAL = target: T1, RavR^ΔEAL (Xanthomonas campestris pv. campestris, UniProt Q8P9A7); experiment: microscale thermophoresis (MST) binding; details: 20 nM fluorescein-labelled nucleotide, read-out: dissociation constant (Kd)
T1 sequence (Q8P9A7 with tags, fused parts or gaps): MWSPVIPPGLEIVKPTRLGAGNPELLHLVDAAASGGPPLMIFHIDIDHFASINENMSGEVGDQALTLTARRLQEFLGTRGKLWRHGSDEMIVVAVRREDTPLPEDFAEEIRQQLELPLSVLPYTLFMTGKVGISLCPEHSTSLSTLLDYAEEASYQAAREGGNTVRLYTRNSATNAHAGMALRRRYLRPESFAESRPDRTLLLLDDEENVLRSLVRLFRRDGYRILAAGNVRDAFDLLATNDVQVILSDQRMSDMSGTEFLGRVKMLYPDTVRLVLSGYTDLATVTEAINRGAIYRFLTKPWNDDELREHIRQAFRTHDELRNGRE

[1] = system: DHpCA^D637A, DHp-CA^G639A, DHp-CA^D640A, DHp-CA^I653A, DHp-CA^E657A and DHp-CA^L666A; experiment: microscale thermophoresis (MST) binding, Ala-substituted DHp-CA proteins; set-up: species or system Xanthomonas campestris pv. campestris; details: compared with DHp-CA protein; fl-c-di-GMP used in the MST assay
Protocol: (§1) Fig 6 Arg^656 in the CA domain of RavS is a key residue for c-di-GMP binding. (a, b) c-di-GMP binds to the DHp-CA domain of RavS. PAS-A, PAS-B and DHp-CA in (a), and DHp and CA domains of RavS in (b), were purified and the interaction with c-di-GMP was measured by MST. Each assay was repeated three times. Standard deviations are shown. (c) Molecular docking model of the interaction between c-di-GMP and DHp-CA of RavS. c-di-GMP is shown as a ball-and-stick model and DHp-CA is shown in ribbon representation. (d) Schematic view of the predicted docking site between c-di-GMP and DHp-CA. Potential hydrogen bonds are indicated as blue dashed lines. Autodock software was used to predict the interaction. […] Ten recombinant proteins of the DHp-CA region, each containing a substitution of a putative essential residue involved in c-di-GMP binding, were used in the MST assay to quantify the Kd value of RavS–c-di-GMP binding. fl-c-di-GMP was used in the MST assay. […] The reactions were terminated with 5× SDS loading buffer and the products were separated by 12% SDS-PAGE, exposed to a phosphor screen and analysed by Typhoon FLA7000. […]
(§2) The interaction between c-di-GMP nucleotides and various proteins was measured by using MST with a fluorescein-labelled c-di-GMP (2′-Fluo-AHC-c-di-GMP, abbreviated as fl-c-di-GMP; 2′-Fluo-AHC-c-di-AMP, fl-c-di-AMP; 2′-Fluo-AHC-cGMP, fl-cGMP; Biolog, Germany). […]

[2] = system: DHp-CA^S636A, DHp-CA^D638A and DHp-CA^L652A; experiment: as above; set-up: species or system Xanthomonas campestris pv. campestris; details: compared with positive control DHp-CA protein; fl-c-di-GMP used in the MST assay
Protocol: as §1, §2

| SMILES | Kd (RavR^ΔEAL) | change in c-di-GMP binding affinity [1] | fold increases in Kd values [2] |
| --- | --- | --- | --- |
| Nc1nc2c(ncn2[C@@H]2O[C@@H]3COP(=O)(O)O[C@H]4[C@@H](OC(=O)NCCCCCCNC(=O)c5ccc6c(c5)C(=O)OC65c6ccc(O)cc6Oc6cc(O)ccc65)[C@H](n5cnc6c(=O)[nH]c(N)nc65)O[C@@H]4COP(=O)(O)O[C@H]3[C@H]2O)c(=O)[nH]1 [fl-c-di-GMP, 2′-Fluo-AHC-c-di-GMP] | 111 µM and > 80 µM |  |  |
| Nc1nc2c(ncn2[C@@H]2O[C@@H]3COP(=O)(O)O[C@H]4[C@@H](O)[C@H](n5cnc6c(=O)[nH]c(N)nc65)O[C@@H]4COP(=O)(O)O[C@H]3[C@H]2O)c(=O)[nH]1 [c-di-GMP, Cyclic di-GMP] |  | no significant change | 1–2 fold |
